Source: patent US20100221351A1, “Controlled Drug Delivery Using a Thermally Responsive Nanocapsule to Augment Cryoablation” (UNIVERSITY OF SOUTH CAROLINA, priority 2009, published 2010)

Assay: Release of trehalose during dialysis into 1 L water at 37° C.
Assay type: physicochemical
Conditions: 0.3 g trehalose in 2 ml water
Description: FIG. 2. Release of trehalose (0.3 g) into 1 L water during dialysis under 3 conditions: free dissolved, nanoencapsulated (NE) with cooling/heating between 22 and 37° C. (NE22-37C), and nanoencapsulated kept at 37° C. (NE37C) before dialysis.
This nanocapsule has been used to physically encapsulate a small molecular weight hydrophilic trehalose (Mw=342 Da) for its intracellular delivery and controlled release. […] Clearly, the free dissolved trehalose was completely released from the dialysis bag in ˜2 hr, while trehalose release from the other two conditions with nanoencapsulation is much slower. The release for the sample kept 37° C. (i.e., NE37C) reached equilibrium at approximately 4 hours while it is approximately 3 hours for the sample with cooling and heating between 22 and 37° C. (i.e., NE22-37C). Moreover, approximately 11.3 and 4.3 mg trehalose were still retained in the NE37C and NE22-37C samples under the equilibrium state, respectively. […] In other words, a quick release of the nanoencapsulated trehalose can be achieved by thermally cycling the trehalose loaded nanocapsule between 22 and 37° C.

- time to complete release of trehalose from the dialysis bag: ~2 h
Compound: OC[C@H]1O[C@H](O[C@H]2O[C@H](CO)[C@@H](O)[C@H](O)[C@H]2O)[C@H](O)[C@@H](O)[C@@H]1O [free dissolved trehalose, trehalose]
